Results as given in PubChem BioAssay AID2060611 (Molecular Pharmacology Branch, DTP, NCI, 2025).

System: 628569-122-R-J1-PDC complex spheroid viability
Assay: Anticancer human tumor 628569-122-R-J1-PDC patient-derived head and neck squamous carcinoma cell line growth inhibition [CLK]
Settings: for IC50: curve of first compound; for viability, T/C: stronger effect = lower value; active means viability on the fitted dose curve at most 10% of control; inactive means the rest
Outline: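 Patient-derived tumor cells grown as complex spheroids with HUVEC endothelial cells and mesenchymal stem cells, treated with drug combinations. Concentrations descend in half-log steps from near clinical Cmax, or from 10 microM if Cmax unknown.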

[1] = second compound 0.0316 µM, first compound 0.0316 µM
[2] = second compound 0.0316 µM, first compound 0.1 µM
[3] = second compound 0.0316 µM, first compound 0.316 µM
[4] = second compound 0.0316 µM, first compound 1 µM
[5] = second compound 0.0316 µM, first compound 3.16 µM
[6] = second compound 0.0316 µM, first compound 10 µM
[7] = second compound 0.1 µM, first compound 0.0316 µM
[8] = second compound 0.1 µM, first compound 0.1 µM
[9] = second compound 0.1 µM, first compound 0.316 µM
[10] = second compound 0.1 µM, first compound 1 µM
[11] = second compound 0.1 µM, first compound 3.16 µM
[12] = second compound 0.1 µM, first compound 10 µM
[13] = second compound 0.316 µM, first compound 0.0316 µM
[14] = second compound 0.316 µM, first compound 0.1 µM
[15] = second compound 0.316 µM, first compound 0.316 µM
[16] = second compound 0.316 µM, first compound 1 µM
[17] = second compound 0.316 µM, first compound 3.16 µM
[18] = second compound 0.316 µM, first compound 10 µM
[19] = second compound 1 µM, first compound 0.0316 µM
[20] = second compound 1 µM, first compound 0.1 µM
[21] = second compound 1 µM, first compound 0.316 µM
[22] = second compound 1 µM, first compound 1 µM
[23] = second compound 1 µM, first compound 3.16 µM
[24] = second compound 1 µM, first compound 10 µM
[25] = second compound 3.16 µM, first compound 0.0316 µM
[26] = second compound 3.16 µM, first compound 0.1 µM
[27] = second compound 3.16 µM, first compound 0.316 µM
[28] = second compound 3.16 µM, first compound 1 µM
[29] = second compound 3.16 µM, first compound 3.16 µM
[30] = second compound 3.16 µM, first compound 10 µM
[31] = second compound 10 µM, first compound 0.0316 µM
[32] = second compound 10 µM, first compound 0.1 µM
[33] = second compound 10 µM, first compound 0.316 µM
[34] = second compound 10 µM, first compound 1 µM
[35] = second compound 10 µM, first compound 3.16 µM
[36] = second compound 10 µM, first compound 10 µM
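Further: spheroids exposed to agents for seven days before readout.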
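Wherever viability, T/C is given: 100% = DMSO vehicle control viability.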

CC(CO)NC(=O)c1cc(-c2ccc(Cl)cc2)nn(-c2cnn(C)c2)c1=O (stereo unspecified) + CNC(=O)c1ccc(Nc2nc(OC3CCCC3)c3c(-c4ccc5nc(C)oc5c4)c[nH]c3n2)c(OC)c1
inactive: viability, T/C [1] 135% | viability, T/C [2] 176% | viability, T/C [3] 214% | viability, T/C [4] 189% | viability, T/C [5] 192% | viability, T/C [6] 169% | viability, T/C [7] 91.4% | viability, T/C [8] 87.9% | viability, T/C [9] 100% | viability, T/C [10] 125% | viability, T/C [11] 138% | viability, T/C [12] 124% | viability, T/C [13] 66.2% | viability, T/C [14] 82.6% | viability, T/C [15] 100% | viability, T/C [16] 104% | viability, T/C [17] 150% | viability, T/C [18] 97.4% | viability, T/C [19] 64.7% | viability, T/C [20] 68.7% | viability, T/C [21] 79.4% | viability, T/C [22] 89.6% | viability, T/C [23] 84.9% | viability, T/C [24] 81.6% | viability, T/C [25] 70.8% | viability, T/C [26] 66.2% | viability, T/C [27] 81% | viability, T/C [28] 77.6% | viability, T/C [29] 90% | viability, T/C [30] 82.4% | viability, T/C [31] 70% | viability, T/C [32] 59.4% | viability, T/C [33] 76.1% | viability, T/C [34] 93.1% | viability, T/C [35] 90.8% | viability, T/C [36] 79.3%
> 10 µM: IC50 (second compound 0.0316 µM) | IC50 (second compound 0.1 µM) | IC50 (second compound 0.316 µM) | IC50 (second compound 1 µM) | IC50 (second compound 3.16 µM) | IC50 (second compound 10 µM)

O=C(c1cc(Cc2n[nH]c(=O)c3ccccc23)ccc1F)N1CCN(C(=O)C2CC2)CC1 + CN1CCN(c2cc(C(=O)Nc3cc4cc(-c5cnn(C)c5)ccc4cn3)ccn2)CC1
< 0.0316 µM: IC50 (second compound 0.316 µM) | IC50 (second compound 1 µM) | IC50 (second compound 3.16 µM) | IC50 (second compound 10 µM)
6.76 µM: IC50 (second compound 0.0316 µM)
1.21 µM: IC50 (second compound 0.1 µM)
active: viability, T/C [19] 9.74% | viability, T/C [20] 5.97% | viability, T/C [21] 9.24% | viability, T/C [22] 5% | viability, T/C [23] 8.27% | viability, T/C [24] 8.76% | viability, T/C [25] 6.83% | viability, T/C [26] 7.39% | viability, T/C [27] 8.5% | viability, T/C [28] 5.51% | viability, T/C [29] 6.5% | viability, T/C [30] 8.04% | viability, T/C [31] 3.42% | viability, T/C [32] 3.07% | viability, T/C [33] 1.85% | viability, T/C [34] 3.59% | viability, T/C [35] 3.68% | viability, T/C [36] 2.67%
inactive: viability, T/C [1] 91.9% | viability, T/C [2] 89.5% | viability, T/C [3] 91.2% | viability, T/C [4] 83.3% | viability, T/C [5] 56.8% | viability, T/C [6] 46.5% | viability, T/C [7] 55.8% | viability, T/C [8] 56.6% | viability, T/C [9] 61.9% | viability, T/C [10] 49.8% | viability, T/C [11] 41.5% | viability, T/C [12] 33.7% | viability, T/C [13] 34.6% | viability, T/C [14] 33.6% | viability, T/C [15] 33.9% | viability, T/C [16] 27.7% | viability, T/C [17] 16.8% | viability, T/C [18] 14.2%

Nc1ccccc1NC(=O)c1ccc(CNC(=O)OCc2cccnc2)cc1 + CNC(=O)c1ccc(Nc2nc(OC3CCCC3)c3c(-c4ccc5nc(C)oc5c4)c[nH]c3n2)c(OC)c1
0.0316 µM: IC50 (second compound 10 µM)
> 10 µM: IC50 (second compound 0.1 µM) | IC50 (second compound 0.316 µM)
0.184 µM: IC50 (second compound 1 µM)
9.14 µM: IC50 (second compound 0.0316 µM)
3.31 µM: IC50 (second compound 3.16 µM)
inactive: viability, T/C [1] 97.7% | viability, T/C [2] 114% | viability, T/C [3] 125% | viability, T/C [4] 138% | viability, T/C [5] 101% | viability, T/C [6] 45.6% | viability, T/C [7] 59.1% | viability, T/C [8] 55% | viability, T/C [9] 61.9% | viability, T/C [10] 83.7% | viability, T/C [11] 102% | viability, T/C [12] 32.3% | viability, T/C [13] 50.8% | viability, T/C [14] 51% | viability, T/C [15] 49% | viability, T/C [16] 73.3% | viability, T/C [17] 94.1% | viability, T/C [18] 22.5% | viability, T/C [19] 42.9% | viability, T/C [20] 48.7% | viability, T/C [21] 47.4% | viability, T/C [22] 60.4% | viability, T/C [23] 81.8% | viability, T/C [24] 12.5% | viability, T/C [25] 44.6% | viability, T/C [26] 45.5% | viability, T/C [27] 45.8% | viability, T/C [28] 56.5% | viability, T/C [29] 67.3% | viability, T/C [31] 48.6% | viability, T/C [32] 41.5% | viability, T/C [33] 44.2% | viability, T/C [34] 54.3% | viability, T/C [35] 57.6%
active: viability, T/C [30] 7.27% | viability, T/C [36] 4.45%
